Assay results from ChEMBL document CHEMBL3885861, “Open TG-GATES”.

Species on record: Rattus norvegicus
Assay: Open TG-GATES - Regimen: Single
Type: toxicity, organism-based, Sprague-Dawley
Set-up: regimen Single, gender Male, age 6 weeks
Conditions: in vivo, po, 0 mg/kg, route gavage, dose level Control; for APTT / Bas / Eos / Fbg / Hb / Ht / Lym / MCHC / MCV / Mono / Neu / PT / Plat / RBC / Ret / WBC: tissue Blood; for KIDNEY_L / KIDNEY_R / KIDNEY_TOTAL: tissue Kidney; for LIVER: tissue Liver; for ALP / ALT / AST / BUN / CRE / Ca / Cl / DBIL / GLC / IP / K / LDH / Na / PL / RALB / TBIL / TC / TG / TP / gamma-GTP: tissue Plasma

Question: Which results are given for CS(=O)(=O)Nc1ccc([N+](=O)[O-])cc1Oc1ccccc1 [NIMESULIDE]?
Answer: TERMINAL_BW (3 h): 201.3 g; APTT (3 h): 17.1 s; Bas (3 h): 0%; Eos (3 h): 1.4%; Fbg (3 h): 212 mg/dL; Hb (3 h): 14.1 g/dL; Ht (3 h): 41.1%; Lym (3 h): 77%; MCHC (3 h): 34.3%; MCV (3 h): 64.2 fL; Mono (3 h): 6.2%; Neu (3 h): 15.6%; PT (3 h): 12.4 s; Plat (3 h): 118.2 x10_4/uL; RBC (3 h): 640.8 x10_4/ul; Ret (3 h): 10.6%; WBC (3 h): 89.8 x10_2/uL; KIDNEY_L (3 h): 0.9 g; KIDNEY_R (3 h): 0.9 g; KIDNEY_TOTAL (3 h): 1.9 g; LIVER (3 h): 9.7 g; ALP (3 h): 917.4 IU/L; ALT (3 h): 37.4 IU/L; AST (3 h): 63.4 IU/L; BUN (3 h): 12.4 mg/dL; CRE (3 h): 0.5 mg/dL; Ca (3 h): 11 mg/dL; Cl (3 h): 105.4 meq/L; DBIL (3 h): 0.048 mg/dL; GLC (3 h): 197.2 mg/dL; IP (3 h): 9.6 mg/dL; K (3 h): 4.8 meq/L; LDH (3 h): 65.8 IU/L; Na (3 h): 141.8 meq/L; PL (3 h): 133.6 mg/dL; RALB (3 h): 3.7 g/dL; TBIL (3 h): 0.3 mg/dL; TC (3 h): 75 mg/dL; TG (3 h): 57.4 mg/dL; TP (3 h): 5.3 g/dL; gamma-GTP (3 h): 1.6 IU/L; TERMINAL_BW (6 h): 196.6 g; APTT (6 h): 17.7 s; Bas (6 h): 0%; Eos (6 h): 1%; Fbg (6 h): 209.6 mg/dL; Hb (6 h): 13.6 g/dL; Ht (6 h): 40.3%; Lym (6 h): 72.6%; MCHC (6 h): 33.7%; MCV (6 h): 65.3 fL; Mono (6 h): 7.8%; Neu (6 h): 19%; PT (6 h): 12.5 s; Plat (6 h): 116.9 x10_4/uL; RBC (6 h): 617.4 x10_4/ul; Ret (6 h): 11.4%; WBC (6 h): 109.3 x10_2/uL; KIDNEY_L (6 h): 0.8 g; KIDNEY_R (6 h): 0.9 g; KIDNEY_TOTAL (6 h): 1.7 g; LIVER (6 h): 8.5 g; ALP (6 h): 832.8 IU/L; ALT (6 h): 35.8 IU/L; AST (6 h): 63.2 IU/L; BUN (6 h): 12.4 mg/dL; CRE (6 h): 0.6 mg/dL; Ca (6 h): 10.7 mg/dL; Cl (6 h): 105.6 meq/L; DBIL (6 h): 0.062 mg/dL; GLC (6 h): 188 mg/dL; IP (6 h): 10.2 mg/dL; K (6 h): 4.9 meq/L; LDH (6 h): 62.6 IU/L; Na (6 h): 140.4 meq/L; PL (6 h): 139.6 mg/dL; RALB (6 h): 3.7 g/dL; TBIL (6 h): 0.4 mg/dL; TC (6 h): 83.2 mg/dL; TG (6 h): 52.8 mg/dL; TP (6 h): 5.2 g/dL; gamma-GTP (6 h): 2 IU/L; TERMINAL_BW (9 h): 196.3 g; APTT (9 h): 17.5 s; Bas (9 h): 0%; Eos (9 h): 1%; Fbg (9 h): 204.8 mg/dL; Hb (9 h): 13.4 g/dL; Ht (9 h): 39.5%; Lym (9 h): 71.6%; MCHC (9 h): 33.9%; MCV (9 h): 64.3 fL; Mono (9 h): 9%; Neu (9 h): 18.6%; PT (9 h): 12.4 s; Plat (9 h): 110.8 x10_4/uL; RBC (9 h): 614 x10_4/ul; Ret (9 h): 10.8%; WBC (9 h): 94 x10_2/uL; KIDNEY_L (9 h): 0.9 g; KIDNEY_R (9 h): 1 g; KIDNEY_TOTAL (9 h): 1.9 g; LIVER (9 h): 8.3 g; ALP (9 h): 898.6 IU/L; ALT (9 h): 31.4 IU/L; AST (9 h): 59.8 IU/L; BUN (9 h): 12.4 mg/dL; CRE (9 h): 0.5 mg/dL; Ca (9 h): 10.6 mg/dL; Cl (9 h): 106 meq/L; DBIL (9 h): 0.028 mg/dL; GLC (9 h): 193.6 mg/dL; IP (9 h): 10.3 mg/dL; K (9 h): 5 meq/L; LDH (9 h): 79.2 IU/L; Na (9 h): 138.4 meq/L; PL (9 h): 128.4 mg/dL; RALB (9 h): 4 g/dL; TBIL (9 h): 0.3 mg/dL; TC (9 h): 70.8 mg/dL; TG (9 h): 47.6 mg/dL; TP (9 h): 5.3 g/dL; gamma-GTP (9 h): 1.2 IU/L; TERMINAL_BW (24 h): 217.2 g; APTT (24 h): 16.3 s; Bas (24 h): 0%; Eos (24 h): 1%; Fbg (24 h): 201 mg/dL; Hb (24 h): 13.1 g/dL; Ht (24 h): 38.9%; Lym (24 h): 71.6%; MCHC (24 h): 33.7%; MCV (24 h): 66 fL; Mono (24 h): 10.8%; Neu (24 h): 16.6%; PT (24 h): 11.7 s; Plat (24 h): 118.1 x10_4/uL; RBC (24 h): 590.2 x10_4/ul; Ret (24 h): 10.9%; WBC (24 h): 107.9 x10_2/uL; KIDNEY_L (24 h): 1 g; KIDNEY_R (24 h): 1 g; KIDNEY_TOTAL (24 h): 1.9 g; LIVER (24 h): 10.4 g; ALP (24 h): 1023 IU/L; ALT (24 h): 35 IU/L; AST (24 h): 62.8 IU/L; BUN (24 h): 18.4 mg/dL; CRE (24 h): 0.5 mg/dL; Ca (24 h): 10.7 mg/dL; Cl (24 h): 104.4 meq/L; DBIL (24 h): 0.012 mg/dL; GLC (24 h): 190.4 mg/dL; IP (24 h): 7.8 mg/dL; K (24 h): 4.9 meq/L; LDH (24 h): 81.4 IU/L; Na (24 h): 139.6 meq/L; PL (24 h): 150.8 mg/dL; RALB (24 h): 4.1 g/dL; TBIL (24 h): 0.3 mg/dL; TC (24 h): 79.8 mg/dL; TG (24 h): 86.8 mg/dL; TP (24 h): 5.5 g/dL; gamma-GTP (24 h): 1.8 IU/L
